Assay results: patent publication US20070281903A1, “Morinda Citrifolia-Based Formulation 5-LOX And 15-LOX” (priority 2006, published 2007)
Several values for one entry are separate records, joined by “and”; a condition that tells them apart may be missing. Identical values can stand only once.

Molecular target: T1, 5-Lipoxygenase (5-LOX) (Homo sapiens, UniProt P09917)
T1 construct: Human peripheral blood mononuclear leukocytes (PBML) were isolated through a Ficoll-Paque density gradient; endogenous in cells; host or cells: human peripheral blood mononuclear leukocytes (PBML)
T1 sequence (P09917 1-674): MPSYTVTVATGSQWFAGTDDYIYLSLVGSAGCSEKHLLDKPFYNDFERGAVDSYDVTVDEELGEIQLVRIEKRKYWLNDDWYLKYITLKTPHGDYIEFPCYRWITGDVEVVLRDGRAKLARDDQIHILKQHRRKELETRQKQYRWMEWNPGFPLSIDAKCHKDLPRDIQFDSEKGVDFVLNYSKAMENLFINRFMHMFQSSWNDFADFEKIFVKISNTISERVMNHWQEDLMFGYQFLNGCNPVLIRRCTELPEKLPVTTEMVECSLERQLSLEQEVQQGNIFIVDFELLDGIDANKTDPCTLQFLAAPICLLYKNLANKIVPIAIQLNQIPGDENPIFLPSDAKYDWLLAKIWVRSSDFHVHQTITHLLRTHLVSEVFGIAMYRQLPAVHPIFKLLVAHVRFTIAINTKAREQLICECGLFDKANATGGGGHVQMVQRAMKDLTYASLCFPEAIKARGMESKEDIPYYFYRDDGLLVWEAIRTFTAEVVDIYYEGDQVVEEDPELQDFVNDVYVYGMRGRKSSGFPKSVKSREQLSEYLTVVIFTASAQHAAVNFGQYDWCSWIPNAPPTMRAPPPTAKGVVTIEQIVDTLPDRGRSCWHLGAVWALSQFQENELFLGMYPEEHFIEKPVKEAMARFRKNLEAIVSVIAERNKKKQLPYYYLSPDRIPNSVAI
Test: 5-Lipoxygenase inhibition assay, LTB4 by EIA in A23187-stimulated human PBML
Type: cell-based
Conditions: for Avg. % Inh.: average of duplicates; for % Inh. / Product (pg/well): single replicate
Description: Methods employed in this example were adapted from the scientific literature to maximize reliability and reproducibility. […] 110-13 (2000).
In this study, the 5-LOX source was human peripheral blood mononuclear cells (PBMNC) and the substrate was arachidonic acid having a general reaction of: arachidonic acid →5-LOX→5-HPETE→LTB4. Human peripheral blood mononuclear leukocytes (PBML) were isolated through a Ficoll-Paque density gradient. The inhibiting agent was processed Morinda citrifolia puree juice concentrate. Morinda citrifolia was pre-incubated with PBML (5×10^6 cell/ml) in HBSS buffer pH 7.4 at 37° C. for 15 minutes. […] Following neutralization with NaOH and centrifugation, the supernatant LTB4 is measured using an EIA kit.
The supernatant sample was utilized in same assay and protocols as outlined in Example One above, wherein the brown substance obtained was substituted for Morinda citrifolia puree juice.

Compound: CC(Cc1ccc(O)c(O)c1)C(C)Cc1ccc(O)c(O)c1 (stereo not drawn) [NDGA, nordihydroguaretic acid]
- Avg. % Inh. (Conc. 0.03 uM): 6%
- % Inh. (Conc. 0.03 uM): 3.6% and 9.2%
- Product (pg/well) (Conc. 0.03 uM): 3608.3 pg/well and 3403.4 pg/well
- Avg. % Inh. (Conc. 0.1 uM): 36%
- % Inh. (Conc. 0.1 uM): 36.1%
- Product (pg/well) (Conc. 0.1 uM): 2433.3 pg/well
- Avg. % Inh. (Conc. 0.3 uM): 73%
- % Inh. (Conc. 0.3 uM): 73.5% and 72.8%
- Product (pg/well) (Conc. 0.3 uM): 1083.1 pg/well and 1106.1 pg/well
- Avg. % Inh. (Conc. 1 uM): 97%
- % Inh. (Conc. 1 uM): 97.0% and 97.4%
- Product (pg/well) (Conc. 1 uM): 233.7 pg/well and 217.9 pg/well
- Avg. % Inh. (Conc. 3 uM): 100%
- % Inh. (Conc. 3 uM): 99.7% and 100.8%
- Product (pg/well) (Conc. 3 uM): 134.9 pg/well and 94.3 pg/well
